Measurements as given in patent US20260053767A1, “Hepatoprotective Compositions And Methods” (Jemyll, Ltd., priority 2022, published 2026).
“Also recorded” adds a separate entry of the source.

Key:
[1] = system: primary human hepatocytes; assay: In vitro palmitic acid stimulation, gene expression by quantitative real-time PCR; type: cell-based
Description: Total RNA from human primary hepatocytes was extracted using the RNeasy Plus Mini Kit according to the indications provided by the company. A small aliquot of total RNA obtained (3 μl) was subjected to qualitative and quantitative control by using the microdrop. The qualitative and quantitative assessment of the individual samples was determined using a dedicated software. The total RNA was reverse transcribed into cDNA by using iScript RT. SYBR Green gene expression assays were performed according to the manufacturer's instruction using the iQTMSYBR Green Supermix and the CFX96 Touch Real-Time PCR Detection System. For this purpose, the following pairs of primer were used: solute carrier family 13 member 5 (SLC13A5) (forward 5′ […] 3′ (SEQ ID NO:1) and reverse 5′ […] 3′ (SEQ ID NO:2)), Diacylglycerol O-Acyltransferase 1 (DGAT1) (forward 5′ […] 3′ (SEQ ID NO:3) and reverse 5′ […] 3′ (SEQ ID NO:4)), Fatty Acid Synthase (FASN) (forward 5′ […] 3′ (SEQ ID NO:5) and reverse 5′ […] 3′ (SEQ ID NO:6)), carnitine palmitoyltransferase 1A (CPT1A) (forward 5′ […] 3′ (SEQ ID NO:7) and reverse 5′ […] 3′ (SEQ ID NO:8)) and Acetyl-CoA carboxylase (ACC1) (forward 5′ […] 3′ (SEQ ID NO:9) and reverse 5′ […] 3′ (SEQ ID NO:10)). mRNA expression levels were normalized to B2-microglobulin (forward 5′[…] 3′ (SEQ ID NO:11); and reverse 5′[…] 3′ (SEQ ID NO:12)) and quantification of relative gene expression, presented as percentage of the relevant baseline, was calculated using the 2-ACT (comparative threshold) method.
Isolation of human primary hepatocytes: Tissue obtained during percutaneous liver biopsy, was diced (<3 mm) and washed in HBSS to remove excess blood. Tissue was then transferred to a tube containing pre-warmed EGTA buffer (HBSS, 0.5 mM EGTA, 0.5% fatty acid free bovine serum albumin (BSA)) and agitated (100 rpm) in a water bath with shaking bed for 10 min, 37° C. After three washes, to remove the remaining blood and EGTA, the tissue was placed in pre-warmed digestion buffer (HBSS, 0.05% collagenase IV, 0.5% fatty acid free BSA, 10 mM CaC12) and agitated (100 rpm) in a water bath with shaking bed for 30 min, 37° C. The digested tissue was filtered through 100 μm cell strainer while the remaining tissue was again digested in fresh digestion buffer (20). Cell suspensions were pooled and centrifuged at 80 g for 5 min, 4° C. and the supernatant discarded. Cells were grown until confluent and used for citrate uptake analysis.
At the end of the stimulation de novo lipogenesis, fatty acid beta-oxidation and SLC13A5 gene expression were assessed by Quantitative Real-Time PCR Analysis.

rat primary HSCs = assay: HSCs apoptosis by flow cytometry using propidium iodide staining; type: cell-based; details: 1% (w/vol)
Description: A 10% (w/v) FFA-free BSA (Sigma) solution was prepared in ddH2O and maintained at 55° C. in a water bath. 10 mM FFA/1% BSA solution was obtained by complexing the appropriate amount of palmitate stock solution to 10% BSA at 55° C. for another 30 min. The above solution was then cooled to 25° C., filter sterilized and stored at −20° C. until use. Primary hepatocytes were grown in DMEM supplemented with palmitate (0.4 mM). After 24 h. CM was clarified by centrifugation at 6000 g to remove cell debris, sterile filtered with a 0.45 μm pore size membrane filter and stored in aliquots at −20° C. until use.
Hepatic Stellate cells: Primary hepatic stellate cells were isolated from Wistar rats as described previously (7). […] HSCs activation was assessed by flow cytometry by evaluating alpha-smooth muscle Actin (α-SMA) and Collagen type I alpha 1 (COLIA1) protein expression. α-SMA and COLIA1 antibodies were obtained from Thermo Fisher scientific (Waltham, MA). Flow cytometric analysis was conducted with CytoFlex (Beckman Coulter, Brea, CA) and data analyzed with Kaluza software (Beckman Coulter, Brea, CA). […]
Subsequently, protein expression of two established markers of HSCs activation, namely collagen type 1 (COLA1A) and alpha-smooth muscle actin (αSMA), was determined by flow cytometry analysis. […] Next, the inventors analyzed the effect of DODA on HSCs apoptosis. […]

[2] = NIDDM patients, intravenous infusion; cited from earlier work
[3] = primary human hepatocytes, C12 1% (v/w) with palmitic acid 0.4 mM, vs palmitic acid alone

In the case of O=C(O)CCCCCCCCCCC(=O)O [DDDA, dodecanedioic acid], the “gene expression of citrate transporter SLC13A5” value ([1]; human hepatocytes, C12 1% (v/w) with palmitic acid 0.4 mM, vs palmitic acid alone, listed as C12) is reported as “significant decrease; also recorded: reducing citrate transporter SLC13A5”, the “DNL in primary hepatocytes (figure legend)” value ([1]; palmitic acid 0.4 mM, C12 1%) is reported as “reduces” and the “ACC1 (de novo lipogenesis enzyme)” value [1, 3] is reported as “significant reduction”. The “CPT1A (fatty acid beta-oxidation enzyme)” value [1, 3] was “significant increase”, the “DGAT (de novo lipogenesis enzyme)” value [1, 3] was “significant reduction” and the “FASN (de novo lipogenesis enzyme)” value [1, 3] was “significant reduction”. The HSCs apoptosis (rat primary HSCs; CM from palmitate-treated hepatocytes, propidium iodide staining) was “induces HSCs apoptosis”, the “cell death (propidium iodide staining, flow cytometry)” value (rat primary HSCs; rat primary HSCs, CM from steatotic hepatocytes, without compound 8.39%) was 16.16% and the “plasma glucose levels during infusion” value [2] was “significantly decreased”.
